The record followed here is US20040171089A1, “High-throughput screening assay for identifying substances capable of modulating cell survival and/or proliferation” (priority 2001, published 2004).

Holding throughout (format): cell-based, human
Series [1] has as its system phospholipase C. Nature of the series: Quantitative HPLC assay of inositol phosphates (IP3 levels) in MDA MB 468 cells. The note with it: [3H] inositol labelled cells. The text has this: The PH domain of PLC delta 1 has a higher affinity for the phosphoinositide IP3 compared to PIP2. IP3 is produced from PIP2 in response to activation of PLC. Since PIP2 is membrane-bound whereas IP3 is cytosolic, the activation of PLC can be visualised in living cells by the relocalisation of GFP-PH PLC delta 1 from membrane to cytosol. A proviso to this interpretation is that, in conditions where PIP2 levels decline relative to IP3, the net effect would be relocalisation of GFP-PH PLC delta 1 from membrane to cytosol. Thus, to exclude this possibility, quantitative phospholipid assays were performed. (In this analysis, cells were labelled with [^3H] inositol in inositol-free DMEM (In Vitrogen—Gibco) with dialysed FBS for 48 hours before exposure to sigma ligands. Cells were then lysed and subjected to quantitative HPLC assay). These assays confirmed that IP3 levels had risen in cells exposed to sigma antagonists (IP3 levels had risen to 240% and 166% of the level prior to provision of the test substance in response to IPAG and rimcazole respectively) but had not risen in cells exposed to sigma-1 or sigma-2 agonists. This confirmed activation of PLC by sigma antagonists.

Series [2] has as its system PKB/Akt. Nature of the series: PKB immunoprecipitation activity assay in MDA MB 468 cells. The method, then: All cells received 1% DMSOvehiclefor the duration of stimulation. […] Data pointsshown are the mean PKB activity relative to vehicle treated cells from three independently treated dishes of cells with error barsindicating the standard deviation. As controls, cells were treatedwith the PI 3-kinase inhibitor wortmannin for 30 minutes orstimulated with serum for 5 minutes; and
MDA MB 468 cells were exposed to the sigma antagonist IPAG at 100 μM and 10 μM concentrations for periods of time up to 4 hours. At intervals, cells were lysed and then subjected to PKB immunoprecipitation, precisely as has been described previously (Leslie et al., 2001, Biochemical Journal, Vol 357 p427). This method, which is recognised in the art, provides a quantitative measure of PKB activity. FIG. 5c depicts a concentration- and time-dependent decline in PKB activity when cells were exposed to IPAG.

Series [3] deals with adult dermal fibroblasts. Nature of the series: MTS cell viability/proliferation assay, adult dermal fibroblasts. Particulars: 1-10 μM. The method, then:
(§1) This was carried out using an MTS assay (reagents from Promega Corporation, Madison Wis., USA) which is a modification of the MTT assay (as described in Jacobson et al, 1994 EMBO J Vol 13 pp1899-1910). The assay depends on conversion of the MTS tetrazolium compound to a coloured formazan product in metabolically active cells; it is therefore an assay of viable cell number. A decline in values implies cell killing as long as cell disappearance by apoptosis in untreated cell populations is absent or negligible (as with most healthy primary cell populations).
Cells were seeded in the range 1.5×10^5-1.8×10^5 cells per ml of culture medium in 96 well microtitre plates and allowed to attach in a humidifed atmosphere of 5% CO2 in air at 37 deg C. Drugs were added 18-24 hours later and cell viability/proliferation measured at time intervals up to 48-72 hours post-drug addition when the experiment was terminated. Mean (±SE) values at each time point were obtained from wells in triplicate.
(§2) Cell viability was measured as follows: 20 μl of MTS solution (Promega) was added to wells and incubated at 37 deg C. for 3 hours during which time a coloured formazan product is generated in viable cells. […] Viable cell number was then measured by reading absorbance at 490 nm in a Dynex microtitre plate reader. […]

In series [4] the test system is mammary epithelial cells. In words: MTS cell viability/proliferation assay, mammary epithelial cells. Particulars: 1-10 μM. The procedure: Human mammary epithelial cells (catalogue number CC-2551; stain positive for cytokeratins 14, 18 and 19)
as §1
Cells were seeded in the range 1.5×10^5-1.8×10^5 cells per ml of culture medium in 96 well microtitre plates and allowed to attach in a humidifed atmosphere of 5% CO2 in air at 37 deg C. Drugs were added 18-24 hours later and cell viability/proliferation measured at time intervals up to 48-72 hours post-drug addition when the experiment was terminated. […]
as §2

Each structure is given as a SMILES string.

As for `N=C(Nc1ccc(I)cc1)NC1C2CC3CC(C2)CC1C3` (centres unmarked) [IPAG, 1-(4-iodophenyl)-3-(2-adamantyl)guanidine], the “IP3 levels, % of the level prior to provision of the test substance” value in series [1] is 240%. For the same compound, the PKB activity entry is on record as “later decline in PKB activity” in series [2] (10 μM, up to 4 hours) and “profoundly inhibited PKB activity” in series [2] (100 μM, within 5 minutes, sustained to at least 30 minutes). In addition, the Cytotoxicity entry in series [3] and in series [4] was “not cytotoxic” in each case.
